Results on 17 compounds are retold here after patent publication USRE47302E1 (ONYX THERAPEUTICS INC., priority 2013, dated 2019).

For data set [1], the target named is T1, immunoproteasome subunit LMP7 (Homo sapiens, UniProt P28062).
T1 construct: Lysate from the human acute lymphoblastic leukemia cell line, MOLT-4; endogenous in cells; host or cells: MOLT-4
Briefly: Proteasome active-site ELISA (ProCISE), LMP7, MOLT-4 lysate. The format is biochemical. The settings on record: MOLT4 lysate, 1 h continuous treatment, 25° C. The method in brief: (§1)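 MOLT-4 cell lysate treated 1 h at 25 °C with compound; probe-bound subunits denatured, pulled down on streptavidin beads and detected with subunit-specific antibodies plus HRP chemiluminescence.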
(An ELISA detects its analyte on a solid surface through an enzyme-linked reagent.)

Data set [2] addresses T2, proteasome subunit β5 (beta5) (Homo sapiens, UniProt P28074).
T2 construct: Lysate from the human acute lymphoblastic leukemia cell line, MOLT-4; endogenous in cells; host or cells: MOLT-4
As to the kind of experiment: Proteasome active-site ELISA (ProCISE), beta5, MOLT-4 lysate. Type of data set: biochemical. The following applies: MOLT4 lysate, human, 1 h continuous treatment, 25° C. The method in brief:
as §1

Data set [3] addresses human constitutive 20S proteasome (c20S) (Homo sapiens, UniProt P28074). As to the kind of experiment: 20S proteasome assay, chymotrypsin-like activity (succinyl-Leu-Leu-Val-Tyr-AMC), c20S. The format is biochemical. The settings on record: LLVY substrate, 1 h continuous. An excerpt: (§2) Assay buffer consisted of TE buffer [20 mmol/L Tris (pH 8.0), 0.5 mmol/L EDTA] with (20S) or without (cell lysate) 0.03% SDS. Reactions were initiated by enzyme or lysate addition and monitored for AMC product formation at 27jC with a plate-based spectofluorometer (Tecan).

In data set [4] the target is human 20S immunoproteasome (i20S) (Homo sapiens, UniProt P28062). Briefly: 20S proteasome assay, chymotrypsin-like activity (succinyl-Leu-Leu-Val-Tyr-AMC), i20S. Type of data set: biochemical. The settings on record: LLVY substrate, 1 h continuous.
Text: as §2

The nature of the next data set: Solubility pH 7. The settings on record: pH 7, aqueous buffer.

Converted amounts (≈) assume the structure as drawn.

The IC50 is the concentration that inhibits the measured activity by half. Read a low IC50 as greater potency in that assay. One may read the solubility as the concentration that dissolves in the medium under given conditions. Lower therefore signals little dissolved substance. As to `COc1ccc(C[C@H](NC(=O)[C@H](C)NC(=O)CN2CCOCC2)C(=O)N[C@@H](CC2CCCC2)C(=O)[C@@]2(C)CO2)cc1` [Compound C-1005, (S)-N-((S)-3-cyclopentyl-1-((R)-2-methyloxiran-2-yl)-1-oxopropan-2-yl)-3-(4-methoxyphenyl)-2-((S)-2-(2-morpholinoacetamido)propanamido)propanamide], the IC50 was 185 nM in data set [1], 1940 nM in data set [2], 519 nM in data set [3] and 70.4 nM in data set [4]. Further, the concentration in solution in “Solubility pH 7” (solubility) was 1760 µg/mL (≈ 3.08 mM).
For `C[C@H](NC(=O)CN1CCOCC1)C(=O)N[C@@H](Cc1ccc2occc2c1)C(=O)N[C@@H](CC1CCCC1)C(=O)[C@@]1(C)CO1` [Compound C-1007, (S)-3-(benzofuran-5-yl)-N-((S)-3-cyclopentyl-1-((R)-2-methyloxiran-2-yl)-1-oxopropan-2-yl)-2-((S)-2-(2-morpholinoacetamido)propanamido)propanamide], in that order: 314 nM, 2360 nM, 440 nM, 106 nM and 878 µg/mL (≈ 1.51 mM).
For `COc1ccc(C[C@H](NC(=O)[C@H](C)NC(=O)CN2CCOCC2)C(=O)N[C@@H](CC2=CCCC2)C(=O)[C@@]2(C)CO2)cc1` [Compound C-1009, (S)-N-((S)-3-(Cyclopent-1-en-1-yl)-1-((R)-2-methyloxiran-2-yl)-1-oxopropan-2-yl)-3-(4-methoxyphenyl)-2-((S)-2-(2-morpholinoacetamido)propanamido)propanamide], in that order: 83.1 nM, 926 nM, 351 nM, 46.2 nM and 2730 µg/mL (≈ 4.79 mM).
In the case of `COc1ccc(C[C@H](NC(=O)[C@H](C)NC(=O)CC2CCOCC2)C(=O)N[C@@H](CC2CCCC2)C(=O)[C@@]2(C)CO2)cc1` [Compound C-1010, (S)-N-((S)-3-cyclopentyl-1-((R)-2-methyloxiran-2-yl)-1-oxopropan-2-yl)-3-(4-methoxyphenyl)-2-((S)-2-(2-(tetrahydro-2H-pyran-4-yl)acetamido)propanamido)propanamide], the IC50 is 99.6 nM in data set [1], 695 nM in data set [2], 119 nM in data set [3] and 24.4 nM in data set [4]. In addition, the concentration in solution in “Solubility pH 7” (solubility) was 185 µg/mL (≈ 0.324 mM).
For the compound `COc1ccc(C[C@H](NC(=O)[C@H](C)NC(=O)CN2CCOCC2)C(=O)N[C@@H](C[C@@H]2CCC(F)(F)C2)C(=O)[C@@]2(C)CO2)cc1` [Compound C-1033, (S)-N-((S)-3-((S)-3,3-difluorocyclopentyl)-1-((R)-2-methyloxiran-2-yl)-1-oxopropan-2-yl)-3-(4-methoxyphenyl)-2-((S)-2-(2-morpholinoacetamido)propanamido)propanamide], the half-inhibitory concentration (IC50) in data set [3] stood at 121000 nM; in data set [4], 3100 nM. The same compound displayed a solubility in “Solubility pH 7” of 3210 µg/mL (≈ 5.28 mM).
Turning to `COc1ccc(C[C@H](NC(=O)[C@H](C)NC(=O)CN2CCOCC2)C(=O)N[C@@H](C[C@H]2CCC(F)(F)C2)C(=O)[C@@]2(C)CO2)cc1` [Compound C-1034, (S)-N-((S)-3-((R)-3,3-difluorocyclopentyl)-1-((R)-2-methyloxiran-2-yl)-1-oxopropan-2-yl)-3-(4-methoxyphenyl)-2-((S)-2-(2-morpholinoacetamido)propanamido)propanamide], the values for the IC50 in data set [3] and in data set [4] were 25400 nM and 1050 nM, respectively. The same compound gave a solubility in “Solubility pH 7” of 2780 µg/mL (≈ 4.57 mM).
For `COc1ccc(C[C@H](NC(=O)[C@@H](C)NC(=O)[C@@H]2CCOC2)C(=O)N[C@@H](CC2CCCC2)C(=O)[C@@]2(C)CO2)cc1` [Compound C-1036, (R)-N-((R)-1-(((S)-1-(((S)-3-cyclopentyl-1-((R)-2-methyloxiran-2-yl)-1-oxopropan-2-yl)amino)-3-(4-methoxyphenyl)-1-oxopropan-2-yl)amino)-1-oxopropan-2-yl)tetrahydrofuran-3-carboxamide], in that order: 16500 nM, 480 nM and 277 µg/mL (≈ 0.51 mM).
For `COc1ccc(C[C@H](NC(=O)[C@@H](C)NC(=O)[C@H]2CCOC2)C(=O)N[C@@H](CC2CCCC2)C(=O)[C@@]2(C)CO2)cc1` [Compound C-1037, (S)-N-((R)-1-(((S)-1-(((S)-3-cyclopentyl-1-((R)-2-methyloxiran-2-yl)-1-oxopropan-2-yl)amino)-3-(4-methoxyphenyl)-1-oxopropan-2-yl)amino)-1-oxopropan-2-yl)tetrahydrofuran-3-carboxamide], in that order: 5860 nM, 356 nM and 1330 µg/mL (≈ 2.44 mM).
For `C[C@H](NC(=O)CN1CCOCC1)C(=O)N[C@@H](Cc1ccc(O)c(O)c1)C(=O)N[C@@H](CC1CCCC1)C(=O)[C@@]1(C)CO1` [Compound C-1039, (S)-N-((S)-3-cyclopentyl-1-((R)-2-methyloxiran-2-yl)-1-oxopropan-2-yl)-3-(3,4-dihydroxyphenyl)-2-((S)-2-(2-morpholinoacetamido)propanamido)propanamide] the same measures were 694 nM, 202 nM and 7010 µg/mL (≈ 12.2 mM).
Take `COc1ccc(C[C@H](NC(=O)[C@H](C)NC(=O)CN2CCCC(F)(F)C2)C(=O)N[C@@H](CC2CCCC2)C(=O)[C@@]2(C)CO2)cc1` [Compound C-1043, (S)-N-((S)-3-cyclopentyl-1-((R)-2-methyloxiran-2-yl)-1-oxopropan-2-yl)-2-((S)-2-(2-(3,3-difluoropiperidin-1-yl)acetamido)propanamido)-3-(4-methoxyphenyl)propanamide]: the IC50 came out at 404 nM in data set [3] and 251 nM in data set [4]. Also, in the data set “Solubility pH 7”, the solubility turned out to be 79.2 µg/mL (≈ 0.131 mM).
For `COc1ccc(C[C@H](NC(=O)[C@H](C)NC(=O)CN2CCOCC2)C(=O)N[C@@H](CC2=C(C)CCC2)C(=O)[C@@]2(C)CO2)cc1` [Compound C-1044, (S)-3-(4-methoxyphenyl)-N-((S)-3-(2-methylcyclopent-1-en-1-yl)-1-((R)-2-methyloxiran-2-yl)-1-oxopropan-2-yl)-2-((S)-2-(2-morpholinoacetamido)propanamido)propanamide] the same measures were 9090 nM, 2580 nM and 1900 µg/mL (≈ 3.25 mM).
For `COc1ccc(C[C@H](NC(=O)[C@H](C)NC(=O)CN2CCC(Cl)CC2)C(=O)N[C@@H](CC2CCCC2)C(=O)[C@@]2(C)CO2)cc1` [Compound C-1045, (S)-2-((S)-2-(2-(4-chloropiperidin-1-yl)acetamido)propanamido)-N-((S)-3-cyclopentyl-1-((R)-2-methyloxiran-2-yl)-1-oxopropan-2-yl)-3-(4-methoxyphenyl)propanamide], in that order: 470 nM, 308 nM and 50.2 µg/mL (≈ 0.083 mM).
For `COc1ccc(C[C@H](NC(=O)[C@H](C)NC(=O)CN2CCC(C(F)(F)F)CC2)C(=O)N[C@@H](CC2CCCC2)C(=O)[C@@]2(C)CO2)cc1` [Compound C-1047, (S)-N-((S)-3-cyclopentyl-1-((R)-2-methyloxiran-2-yl)-1-oxopropan-2-yl)-3-(4-methoxyphenyl)-2-((S)-2-(2-(4-(trifluoromethyl)piperidin-1-yl)acetamido)propanamido)propanamide], in that order: 707 nM, 438 nM and 24.1 µg/mL (≈ 0.0377 mM).
Turning to `COc1ccc(C[C@H](NC(=O)[C@H](C)NC(=O)CN2CCC(F)(F)C2)C(=O)N[C@@H](CC2CCCC2)C(=O)[C@@]2(C)CO2)cc1` [Compound C-1048, (S)-N-((S)-3-cyclopentyl-1-((R)-2-methyloxiran-2-yl)-1-oxopropan-2-yl)-2-((S)-2-(2-(3,3-difluoropyrrolidin-1-yl)acetamido)propanamido)-3-(4-methoxyphenyl)propanamide], the IC50 in data set [3] came out at 2630 nM; in data set [4], 549 nM. Also, the solubility in the data set “Solubility pH 7” worked out at 153 µg/mL (≈ 0.258 mM).
As for `COc1ccc(C[C@H](NC(=O)[C@@H](C)NC(=O)[C@@H]2CCC(=O)NC2)C(=O)N[C@@H](CC2CCCC2)C(=O)[C@@]2(C)CO2)cc1` [Compound C-1058, (R)-N-((R)-1-(((S)-1-(((S)-3-cyclopentyl-1-((R)-2-methyloxiran-2-yl)-1-oxopropan-2-yl)amino)-3-(4-methoxyphenyl)-1-oxopropan-2-yl)amino)-1-oxopropan-2-yl)-6-oxopiperidine-3-carboxamide], the IC50 in data set [3] amounted to 54800 nM; in data set [4], 1610 nM. The same compound yielded a solubility in “Solubility pH 7” of 3010 µg/mL (≈ 5.27 mM).
For `COc1ccc(C[C@H](NC(=O)[C@@H](C)NC(=O)[C@H]2CCC(=O)NC2)C(=O)N[C@@H](CC2CCCC2)C(=O)[C@@]2(C)CO2)cc1` [Compound C-1059, (S)-N-((R)-1-(((S)-1-(((S)-3-cyclopentyl-1-((R)-2-methyloxiran-2-yl)-1-oxopropan-2-yl)amino)-3-(4-methoxyphenyl)-1-oxopropan-2-yl)amino)-1-oxopropan-2-yl)-6-oxopiperidine-3-carboxamide] the same measures were 38400 nM, 1650 nM and 6010 µg/mL (≈ 10.5 mM).
For the compound `C[C@H](NC(=O)CN1CCOCC1)C(=O)N[C@@H](Cc1ccc(F)cn1)C(=O)N[C@@H](Cc1ccccc1)C(=O)[C@@]1(C)CO1` [Compound C-1154, (S)-3-(5-fluoropyridin-2-yl)-N-((S)-1-((R)-2-methyloxiran-2-yl)-1-oxo-3-phenylpropan-2-yl)-2-((S)-2-(2-morpholinoacetamido)propanamido)propanamide], the half-inhibitory concentration (IC50) in data set [3] came to 301 nM; in data set [4] it was 113 nM. Moreover, in the data set “Solubility pH 7”, the solubility was 1910 µg/mL (≈ 3.35 mM).
